Experimental data taken from ChEMBL document CHEMBL3217638, “Synthetic modulators of the retinoic acid receptor-related orphan receptors” (Medchemcomm, 2013).

What was measured:
[1] = biological target: T1, Nuclear receptor ROR-gamma (Mus musculus) (UniProt P51450); conditions: CHO-K1
T1 sequence (whole entry): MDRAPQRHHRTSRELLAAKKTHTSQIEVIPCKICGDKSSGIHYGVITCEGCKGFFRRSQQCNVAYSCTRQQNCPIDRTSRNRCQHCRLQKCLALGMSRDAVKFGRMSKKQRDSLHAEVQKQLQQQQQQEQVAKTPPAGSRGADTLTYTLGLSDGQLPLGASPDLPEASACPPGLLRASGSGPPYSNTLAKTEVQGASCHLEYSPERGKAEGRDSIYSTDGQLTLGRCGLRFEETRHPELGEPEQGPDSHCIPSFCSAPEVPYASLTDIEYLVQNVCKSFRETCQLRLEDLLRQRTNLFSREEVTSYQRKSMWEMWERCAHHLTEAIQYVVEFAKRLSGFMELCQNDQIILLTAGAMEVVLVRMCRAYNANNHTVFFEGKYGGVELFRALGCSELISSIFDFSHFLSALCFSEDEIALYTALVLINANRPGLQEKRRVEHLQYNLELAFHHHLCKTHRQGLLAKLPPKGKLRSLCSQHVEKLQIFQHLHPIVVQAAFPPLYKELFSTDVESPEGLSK
Description: Inverse agonist activity at mouse ROR gamma expressed in CHO-K1 cells after 24 hrs by luciferase reporter gene assay relative to vehicle control response

[2] = biological target: T2, Nuclear receptor ROR-alpha (Mus musculus) (UniProt P51448); conditions: CHO-K1
T2 sequence (whole entry): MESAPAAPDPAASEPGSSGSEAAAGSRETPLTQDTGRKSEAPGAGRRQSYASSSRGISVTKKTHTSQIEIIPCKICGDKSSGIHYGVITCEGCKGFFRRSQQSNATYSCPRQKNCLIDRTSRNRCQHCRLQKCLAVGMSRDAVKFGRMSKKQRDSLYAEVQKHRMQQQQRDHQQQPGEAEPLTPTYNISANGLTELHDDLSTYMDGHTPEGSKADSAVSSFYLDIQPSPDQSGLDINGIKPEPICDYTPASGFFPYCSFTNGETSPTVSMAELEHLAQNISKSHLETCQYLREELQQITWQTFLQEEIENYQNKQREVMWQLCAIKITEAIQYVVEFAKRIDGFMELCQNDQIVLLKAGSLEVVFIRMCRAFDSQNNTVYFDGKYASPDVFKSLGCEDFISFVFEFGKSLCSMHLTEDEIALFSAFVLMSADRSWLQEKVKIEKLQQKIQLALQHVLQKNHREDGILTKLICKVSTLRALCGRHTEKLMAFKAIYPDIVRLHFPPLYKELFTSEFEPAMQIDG
Description: Inverse agonist activity at mouse ROR alpha expressed in CHO-K1 cells after 24 hrs by luciferase reporter gene assay relative to vehicle control response

[3] = biological target: T3, Nuclear receptor ROR-beta (Homo sapiens) (UniProt Q92753); test: Inhibition of ROR beta (unknown origin)-mediated transactivation
T3 sequence (whole entry): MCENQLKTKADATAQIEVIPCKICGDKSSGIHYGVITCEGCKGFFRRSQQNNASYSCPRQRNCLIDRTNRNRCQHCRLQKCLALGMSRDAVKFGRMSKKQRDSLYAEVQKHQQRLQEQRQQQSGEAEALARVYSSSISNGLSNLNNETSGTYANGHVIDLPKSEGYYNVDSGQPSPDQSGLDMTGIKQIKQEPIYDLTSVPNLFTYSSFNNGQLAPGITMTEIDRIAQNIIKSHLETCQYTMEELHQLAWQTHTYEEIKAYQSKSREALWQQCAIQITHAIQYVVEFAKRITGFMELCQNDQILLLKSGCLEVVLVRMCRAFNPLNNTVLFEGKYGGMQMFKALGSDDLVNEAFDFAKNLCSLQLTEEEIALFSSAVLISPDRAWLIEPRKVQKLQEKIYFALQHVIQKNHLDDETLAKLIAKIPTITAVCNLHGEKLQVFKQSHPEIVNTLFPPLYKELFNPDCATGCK

[4] = biological target: T4, Nuclear receptor ROR-gamma (Homo sapiens, UniProt P51449); test: Displacement of 25-[3H]hydroxycholesterol from GST-tagged ROR gamma ligand binding domain (unknown origin) expressed in Escherichia coli BL21 gold (DE3) cells by radioligand competition assay
T4 sequence (P51449 whole entry): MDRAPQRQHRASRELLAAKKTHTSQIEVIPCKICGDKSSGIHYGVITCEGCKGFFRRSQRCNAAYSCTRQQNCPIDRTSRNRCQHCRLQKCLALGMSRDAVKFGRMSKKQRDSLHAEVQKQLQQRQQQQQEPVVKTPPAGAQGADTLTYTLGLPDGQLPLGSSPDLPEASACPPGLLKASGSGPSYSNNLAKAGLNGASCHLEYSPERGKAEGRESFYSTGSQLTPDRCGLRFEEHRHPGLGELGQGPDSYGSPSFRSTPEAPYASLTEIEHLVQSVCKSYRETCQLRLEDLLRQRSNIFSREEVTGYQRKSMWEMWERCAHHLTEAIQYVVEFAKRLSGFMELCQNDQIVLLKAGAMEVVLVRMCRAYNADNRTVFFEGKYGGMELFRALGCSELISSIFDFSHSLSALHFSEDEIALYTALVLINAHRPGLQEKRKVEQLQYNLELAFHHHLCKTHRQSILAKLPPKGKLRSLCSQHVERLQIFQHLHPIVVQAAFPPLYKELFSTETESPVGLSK

[5] = biological target: T5, Nuclear receptor ROR-gamma (Homo sapiens) (UniProt P51449); test: Binding affinity to human ROR gamma ligand binding domain assessed as thermal stability shift by circular dichroism analysis
T5 sequence (whole entry): T4 sequence (P51449 whole entry)

[6] = biological target: T5, Nuclear receptor ROR-gamma (Homo sapiens); test: Agonist activity at ROR gamma in human CD4+ T cells assessed as IL-17 production at 3 uM by ELISA; assay type: cell-based; conditions: T-cell
[7] = biological target: T4, Nuclear receptor ROR-gamma; test: Agonist activity at full length human ROR gamma expressed in human Jurkat cells assessed as IL17 promoter activation by luciferase reporter gene assay; assay type: functional, cell-based
[8] = biological target: T4, Nuclear receptor ROR-gamma; test: Agonist activity at human His6-tagged ROR gamma ligand binding domain (residues 262 to 507) expressed in Escherichia coli BL21 (DE3) cells assessed as increase in recruitment of coactivator peptide by AlphaScreen biochemical assay; assay type: functional
[9] = biological target: T6, Nuclear receptor ROR-alpha (Homo sapiens, UniProt P35398); test: Displacement of 25-[3H]hydroxycholesterol from GST-tagged ROR alpha ligand binding domain (unknown origin) expressed in Escherichia coli BL21 gold (DE3) cells by radioligand competition assay
T6 sequence (P35398 whole entry): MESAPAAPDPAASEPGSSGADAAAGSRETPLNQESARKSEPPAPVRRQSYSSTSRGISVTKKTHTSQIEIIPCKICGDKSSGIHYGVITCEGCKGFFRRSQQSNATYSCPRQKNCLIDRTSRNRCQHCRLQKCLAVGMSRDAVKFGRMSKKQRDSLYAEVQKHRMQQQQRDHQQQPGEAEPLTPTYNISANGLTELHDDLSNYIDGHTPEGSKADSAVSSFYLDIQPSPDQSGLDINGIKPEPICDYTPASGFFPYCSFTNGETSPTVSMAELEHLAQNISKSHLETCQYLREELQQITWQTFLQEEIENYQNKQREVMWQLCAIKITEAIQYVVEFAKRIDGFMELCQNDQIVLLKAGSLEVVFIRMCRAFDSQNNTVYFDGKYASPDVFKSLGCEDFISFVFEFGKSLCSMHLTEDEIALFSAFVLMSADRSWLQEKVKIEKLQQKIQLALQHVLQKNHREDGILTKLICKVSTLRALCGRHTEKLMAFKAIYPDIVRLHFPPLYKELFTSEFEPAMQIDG

[10] = biological target: T4, Nuclear receptor ROR-gamma; test: Activity at human His(GST)-tagged ROR gamma LBD expressed in Escherichia coli BL21 (DE3) cells assessed as receptor-biotinylated SRC1 peptide interaction by TR-FRET assay; assay type: functional

Clc1ccc(CS/C(Cn2cncn2)=N\c2ccc(Cl)cc2Cl)cc1
IC20 [1]: 3000 nM | IC20 [2]: 10000 nM

CC1=C(/C=C/C(C)=C/C=C/C(C)=C/C(=O)O)C(C)(C)CCC1
Imax [3]: 70%

O=S(=O)(c1ccccc1)N(CC(F)(F)F)c1ccc(C(O)(C(F)(F)F)C(F)(F)F)cc1
IC20 [2]: 12000 nM

CC(C)CCC[C@@H](C)[C@H]1CC[C@H]2[C@@H]3[C@@H](O)C=C4C[C@@H](O)CC[C@]4(C)[C@H]3CC[C@]12C
Ki [4]: 10 nM

Cc1cc(C)c2nc(NC(=O)c3sccc3C)sc2c1
melting temperature shift (delta Tm) [5]: 3 °C | Activity [6]: 220% | EC50 [7]: 100 nM

CC(C)CC[C@H](O)[C@@H](C)[C@H]1CC[C@H]2[C@@H]3CC=C4C[C@@H](O)CC[C@]4(C)[C@H]3CC[C@]12C
EC50 [8]: 20 nM

CCCOC/C(=N\c1ccc(Cl)cc1C(F)(F)F)n1ccnc1
IC20 [2]: 10000 nM

CC(C)CCC[C@@](C)(O)[C@H]1CC[C@H]2[C@@H]3CC=C4C[C@@H](O)CC[C@]4(C)[C@H]3CC[C@@]21C
EC50 [8]: 20 nM

CC(C)CCC[C@@H](C)[C@H]1CC[C@H]2[C@@H]3C(=O)C=C4C[C@@H](O)CC[C@]4(C)[C@H]3CC[C@]12C [7-OXOCHOLESTEROL]
Ki [9]: 12 nM

CCC(=O)Nc1ccc2nn(-c3ccc(CC)cc3)nc2c1
melting temperature shift (delta Tm) [5]: 3 °C | EC50 [7]: 100 nM

CCCCC(O)(Cn1cncn1)c1ccc(Cl)cc1Cl (stereo not drawn)
IC20 [1]: 3000 nM | IC20 [2]: 10000 nM

CC(C)CCC[C@@H](C)[C@H]1CC[C@H]2[C@@H]3[C@H](O)C=C4C[C@@H](O)CC[C@]4(C)[C@H]3CC[C@]12C
Ki [4]: 10 nM

O=C(O)c1ccc(-c2nn(C(=O)c3c(Cl)cccc3Cl)c3ccccc23)cc1
EC50 [10]: 11 nM
